Test results as given in US12325676B2, “Cationic lipid compound and composition for delivery of nucleic acids and use thereof” (Shenzhen Rhegen Biotechnology Co., Ltd., priority 2022, dated 2025).

Assays:
[1] = Particle size, PDI and zeta potential of mRNA-loaded lipid nanoparticles (Malvern Zetasizer nano); type: physicochemical
[2] = Encapsulation rate of mRNA-loaded lipid nanoparticles (Ribogreen kit); type: physicochemical
Protocol: (§1) Luciferase mRNA was diluted in 10-100 mM citrate buffer at pH 4.0; the lipid components (cationic lipids shown in the present disclosure: DSPC:cholesterol:PEG lipids (DMG-PEG2000)) were dissolved in ethanol at a molar ratio of 50:10:38.5:1.5.
(§2) 3 mL of a mRNA buffer and 1 mL of a lipid solution were loaded into two 5 mL syringes respectively, and the syringes were installed on a microfluidic syringe pump. Chips were connected to the syringes and syringe pump flow rate was set. Clicking the start button of the syringe pump caused injection into the chip at a flow rate ratio of 3:1. Under observation of the color of the product at the exit of the chip, after discarding the first 5 milky white droplets (about 100 μL), the back-end sample was collected into an EP tube. The collected product was placed in a dialysis bag and dialyzed for 6 h (MWCO: 100 KDa) in 10 mM PBS (pH 7.4) intervals. Subsequently, after being concentrated by ultrafiltration to the desired concentration, the lipid nanoparticles were filtered through a 0.22 μm sterile filter and then stored at 4° C.
(§3) Tests were performed to calculate the encapsulation rate of the products according to the instructions of Ribogreen kit. Particle size and polydispersity index (PDI) detection as well as zeta potential analysis was performed on a Malvern Zetasizer nano instrument using standard assays.

[3] = Particle size, PDI and zeta potential of mRNA-loaded lipid nanoparticles (Malvern Zetasizer nano); type: physicochemical; remark: listed apart in the source
Protocol: as §1, §2, §3

BALB/c mice [4] = assay: In vivo expression of luciferase mRNA delivered by LNP, tail intravenous injection, small animal imaging; settings: Table 3, 5 μg mRNA, female BALB/c mice, DLin-MC3-DMA = 100
Protocol: LUC-mRNA-lipid nanoparticles containing 5 μg mRNA (see SEQ ID NO: 1 in the Patent Application Publication CN114380724A for the corresponding nucleotide sequence of LUC-mRNA) were injected via tail intravenous injection in 6-8 week old female BALB/c mice, prepared as in Example 19. 100 μg of D-Luciferin Potassium Salt was injected via tail intravenous injection into the mice at specific time points and assayed using the PerkinElmer Small Animal Imaging System. Fluc is commonly used in mammalian cell cultures to measure gene expression and cell viability, and it emits biological fluorescent light in the presence of the substrate […]. The basic characteristics of the mRNA used include ARCA cap structure, polyA tail length of 120 nt, and complete substitution of pseudouridine.
The effect of delivering luciferase mRNA using more cationic lipids were validated according to the methods of Example 20 and Example 21.

C57BL6 mice = assay: Intratumoral injection of luciferase mRNA LNP, fluorescence of tumor and liver; type: in vivo; settings: luciferase mRNA LNP 25 μL/2.5 μg intratumoral, B 16F 10 tumor in C57BL6 mice, imaging after 24 h (FIGS. 6 and 7)
Protocol: Different types of lipid nanoparticles encapsulating luciferase mRNA in were prepared accordance with the preparation of Example 20. Tumors were injected subcutaneously in the right abdomen of 6-8 week female C57BL6 mice at 5×10^5 B 16F 10 cells (from CAS Cell Bank, CSTR:19375.09.3101MOUTCM36)/mouse, and tumor growth was observed and recorded periodically. On the 8th day after tumor inoculation, the length (L, mm) and width (D, mm) of the tumors were measured by using a vernier caliper, and the tumor volume (V) was calculated according to the formula V=(L×D^2)/2. Mice with tumor volume in the range of 80-120 mm^3 were taken and randomly grouped, and intratumorally injected with different types of lipid nanoparticles encapsulating luciferase mRNA at the volume of 25 μL/2.5 μg. Anatomical imaging was performed after 24 h to detect the fluorescence intensity of the mouse liver and tumor (as shown in FIGS. 6 and 7). […] This indicates better in situ tumor expression and lower liver […], which is suitable for encapsulation and delivery of some tumor therapy-related nucleic acid drugs.

BALB/c mice [5] = assay: Novel coronavirus mRNA vaccine delivered by LNP, intramuscular immunization, binding antibody titer by ELISA; settings: mouse, in vivo
BALB/c mice [6] = assay: In vivo expression of luciferase mRNA delivered by LNP, lung nebulization; settings: LUC-mRNA LNP, 5 μg mRNA, compared with Lipid M and SM-102
Protocol: LUC-mRNA-lipid nanoparticles containing 5 μg mRNA were administrated via lung nebulization in 6-8 week old BALB/c mice, prepared as in Example 19. 100 μg of D-Luciferin Potassium Salt was injected via tail intravenous injection into the mice at specific time points and assayed using the PerkinElmer Small Animal Imaging System.

[7] = Encapsulation rate of mRNA-loaded lipid nanoparticles (Ribogreen kit); type: physicochemical; remark: listed apart in the source
[8] = Table 2 No. 1, Luc mRNA LNP, Compound 35/DMG-PEG2000/DSPC/cholesterol 55/2.5/22/20.5 molar, N/P 5
[9] = Table 2 No. 2, Luc mRNA LNP, Compound 35/DMG-PEG2000/DSPC/cholesterol 45/1.5/22/31.5 molar, N/P 10
[10] = Table 2 No. 3, Luc mRNA LNP, Compound 35/DMG-PEG2000/DSPC/cholesterol 45/2.5/8/44.5 molar, N/P 5
[11] = Table 2 No. 4, Luc mRNA LNP, Compound 35/DMG-PEG2000/DSPC/cholesterol 45/1.5/8/45.5 molar, N/P 10
[12] = Table 2 No. 5, Luc mRNA LNP, Compound 35/DMG-PEG2000/DSPC/cholesterol 50/1.5/15/33.5 molar, N/P 7.5
[13] = Table 2 No. 6, Luc mRNA LNP, Compound 35/DMG-PEG2000/DSPC/cholesterol 55/1.5/15/28.5 molar, N/P 10
[14] = Table 2 No. 7, Luc mRNA LNP, Compound 35/DMG-PEG2000/DOPE/cholesterol 55/2.5/22/20.5 molar, N/P 5
[15] = Table 2 No. 8, Luc mRNA LNP, Compound 35/DMG-PEG2000/DOPE/cholesterol 45/1.5/22/31.5 molar, N/P 10
[16] = Table 2 No. 9, Luc mRNA LNP, Compound 35/DMG-PEG2000/DOPE/cholesterol 45/2.5/8/44.5 molar, N/P 5
[17] = Table 2 No. 10, Luc mRNA LNP, Compound 35/DMG-PEG2000/DOPE/cholesterol 45/1.5/8/45.5 molar, N/P 10
[18] = Table 2 No. 11, Luc mRNA LNP, Compound 35/DMG-PEG2000/DOPE/cholesterol 50/1.5/15/33.5 molar, N/P 7.5
[19] = Table 2 No. 12, Luc mRNA LNP, Compound 35/DMG-PEG2000/DOPE/cholesterol 55/1.5/15/28.5 molar, N/P 10
[20] = Table 4 batch, EPO mRNA LNP prepared as Example 20
[21] = Table 1, Luciferase mRNA LNP, cationic lipid:DSPC:cholesterol:DMG-PEG2000 50:10:38.5:1.5 molar
[22] = Table 3 batch, luciferase mRNA LNP prepared as Example 20

CCCCCCCCSCC(C)C(=O)OCCCCCN(CCO)CCCCCCCC(=O)OC(CCCCCCCC)CCCCCCCC (stereo not drawn) [Compound 35]
PDI [1, 8]: 0.193 | Particle size (nm) [1, 8]: 100.5 nm | PDI [1, 9]: 0.121 | Particle size (nm) [1, 9]: 98.13 nm | PDI [1, 10]: 0.138 | Particle size (nm) [1, 10]: 70.02 nm | PDI [1, 11]: 0.121 | Particle size (nm) [1, 11]: 98.19 nm | PDI [1, 12]: 0.051 | Particle size (nm) [1, 12]: 85.09 nm | PDI [1, 13]: 0.122 | Particle size (nm) [1, 13]: 93.83 nm | PDI [1, 14]: 0.169 | Particle size (nm) [1, 14]: 145.0 nm | PDI [1, 15]: 0.205 | Particle size (nm) [1, 15]: 114.9 nm | PDI [1, 16]: 0.173 | Particle size (nm) [1, 16]: 92.41 nm | PDI [1, 17]: 0.233 | Particle size (nm) [1, 17]: 113.7 nm | PDI [1, 18]: 0.155 | Particle size (nm) [1, 18]: 140.2 nm | PDI [1, 19]: 0.190 | Particle size (nm) [1, 19]: 129.1 nm | PDI [1, 20]: 0.12 | Particle size (nm) [1, 20]: 79.1 nm | Encapsulation rate (%) [2, 21]: 90.4% | Encapsulation rate (%) [2, 22]: 96.2% | PDI [3, 21]: 0.11 | Particle size (nm) [3, 21]: 104.5 nm | Zeta potential (mV) [3, 21]: −2.10 mV | PDI [3, 22]: 0.14 | Particle size (nm) [3, 22]: 80.4 nm | relative fluorescence intensity (%) (BALB/c mice [4]): 962 ± 78% | brightness (fluorescence intensity) at the tumor (C57BL6 mice): higher brightness at the tumor | brightness (fluorescence intensity) in the liver (C57BL6 mice): lower brightness in the liver | binding antibody titer (BALB/c mice [5]): 1.4 million | fluorescent levels of mRNA expression (FIG. 2) (BALB/c mice [6]): superior to Lipid M and SM-102 | Encapsulation rate (%) [7, 8]: 85.78% | Encapsulation rate (%) [7, 9]: 96.98% | Encapsulation rate (%) [7, 10]: 97.38% | Encapsulation rate (%) [7, 11]: 96.70% | Encapsulation rate (%) [7, 12]: 96.10% | Encapsulation rate (%) [7, 13]: 94.46% | Encapsulation rate (%) [7, 14]: 90.26% | Encapsulation rate (%) [7, 15]: 94.11% | Encapsulation rate (%) [7, 16]: 94.62% | Encapsulation rate (%) [7, 17]: 96.36% | Encapsulation rate (%) [7, 18]: 92.54% | Encapsulation rate (%) [7, 19]: 96.16% | Encapsulation rate (%) [7, 20]: 96.1%
